From patent US7829665B2 (priority 2005, dated 2010) come the findings set out here.

Each structure is given as a SMILES string.

In one experiment the target is T1, full-length NS3/NS4A-2 (HCV NS3 protease) (Hepatitis C virus genotype 1a, UniProt P27958).
T1 construct: Recombinant E. coli or Baculovirus full-length NS3 was diluted to 3.33 μM with assay buffer; made in house; host or cells: E. coli or baculovirus (BV) expression system
T1 sequence (P27958 1027-1657): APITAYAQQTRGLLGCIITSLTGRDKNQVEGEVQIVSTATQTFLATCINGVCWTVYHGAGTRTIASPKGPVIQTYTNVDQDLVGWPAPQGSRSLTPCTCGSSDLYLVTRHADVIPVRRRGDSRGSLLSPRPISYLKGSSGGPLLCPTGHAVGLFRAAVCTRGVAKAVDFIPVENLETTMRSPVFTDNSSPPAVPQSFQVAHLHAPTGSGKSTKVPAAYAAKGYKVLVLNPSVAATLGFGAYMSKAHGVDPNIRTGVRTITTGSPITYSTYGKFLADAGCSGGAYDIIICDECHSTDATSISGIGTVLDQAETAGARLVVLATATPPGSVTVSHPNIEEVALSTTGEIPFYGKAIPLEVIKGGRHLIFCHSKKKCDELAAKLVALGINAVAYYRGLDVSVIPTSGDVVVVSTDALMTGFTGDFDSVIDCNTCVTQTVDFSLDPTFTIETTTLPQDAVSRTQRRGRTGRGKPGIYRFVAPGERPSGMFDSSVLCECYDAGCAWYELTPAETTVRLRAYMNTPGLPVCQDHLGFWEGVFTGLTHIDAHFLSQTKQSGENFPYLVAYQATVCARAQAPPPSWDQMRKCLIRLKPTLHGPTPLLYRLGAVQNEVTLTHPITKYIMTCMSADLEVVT
Kind of experiment: NS3-NS4 protease assay / NS3 inhibition assay (RETS1 substrate, fluorescence kinetic read). The experiment is classed as biochemical. The note with it: Table 22; read-out: NS3-NS4 IC50. The procedure:
NS3 complex formation with NS4A-2.
Recombinant E. coli or Baculovirus full-length NS3 was diluted to 3.33 μM with assay buffer and transferred material to an eppendorf tube and place in water bath in 4° C. refrigerator. The appropriate amount of NS4A-2 to 8.3 mM in assay buffer was added to equal the volume of NS3 in step 2.1.1 (conversion factor—3.8 mg/272 μL assay buffer). The material was transferred to an eppendorf tube and place in water bath in 4° C. refrigerator.
After equilibration to 4° C., equal volumes of NS3 and NS4A-2 solutions were combined in an eppendorf tube, mix gently with a manual pipettor, and incubate mixture for 15 minutes in the 4° C. water bath. Final concentrations in the mixture are 1.67 μM NS3, 4.15 mM NS4A-2 (2485-fold molar excess NS4A-2).
After 15 minutes at 4° C., the NS3/NS4A-2 eppendorf tube was removed and place it in a room temperature water bath for 10 minutes. NS3/NS4A-2 was alliquoted at appropriate volumes and store at −80° C. (E. coli NS3 run at 2 nM in assay, aliquot at 25 μL. BV NS3 run at 3 nM in assay, aliquot at 30 μL).
Sample compounds were dissolved to 10 mM in DMSO then diluted to 2.5 mM (1:4) in DMSO. Typically, compounds were added to an assay plate at 2.5 mM concentration, yielding upon dilution a starting concentration of 50 microM in the assay inhibition curve. Compounds were serial diluted in assay buffer to provide test solutions at lower concentrations.
The E. coli. NS3/NS4A-2 was diluted to 4 nM NS3 (1:417.5 of 1.67 μM stock−18 μL 1.67 μM stock+7497 μL assay buffer). The BV NS3/NS4A-2 was diluted to 6 nM NS3 (1:278.3 of 1.67 μM stock−24 μL 1.67 μM stock+6655 μL assay buffer). Using the manual multichannel pipettor, careful not to introduce bubbles into the plate, add 50 μL assay buffer to wells A01-H01 of a black Costar 96-well polypropylene storage plate.
Using the manual multichannel pipettor, careful not to introduce bubbles into the plate, add 50 μL of diluted NS3/NS4A-2 from step 2.2.6 to wells A02-H12 of plate in step 2.2.7. Using the manual multichannel pipettor, careful not to introduce bubbles into the plate, transfer 25 μL of the wells in drug dilution plate in step 2.2.5 to corresponding wells in assay plate in step 2.2.8. Change tips on multichannel pipettor for each row of compounds transferred. Using the manual multichannel pipettor, careful not to introduce bubbles into the plate, mix the wells from the assay plate in step 2.2.9 by aspirating and dispensing 35 μL of the 75 μL in each well five times. Change tips on multichannel pipettor for each row of wells mixed. Cover plate with a polystyrene plate lid and pre-incubate the plate from step 2.2.10 containing NS3 protease and sample compounds 10 minutes at room temperature. While plate from step 2.2.11 is pre-incubating, dilute RETS1 substrate in a 15 mL polypropylene centrifuge tube. Dilute RETS1 substrate to 8 μM (1:80.75 of 646 μM stock−65 μL 646 μM stock+5184 μL assay buffer).
After the plate in step is done pre-incubating, and using the manual multichannel, add 25 μL of substrate to all wells on the plate. Quickly mix the plate as in step 2.2.10, mixing 65 μL of the 100 μL in the wells.
Read the plate in kinetic mode on the Molecular Devices SpectraMax Gemini XS plate reader. Reader settings: Read time: 30 minutes, Interval: 36 seconds, Reads: 51, Excitation λ: 335 nm, Emission λ: 495 nm, cutoff: 475 nm, Automix: off, Calibrate: once, PMT: high, Reads/well: 6, Vmax pts: 21 or 28/51 depending on length of linearity of reaction
IC50 s are determined using a four parameter curve fit equation, and converted to Ki's using the following Km's: • Full-length E. coli NS3—2.03 μM • Full-length BV NS3—1.74 μM where Ki=IC50/(1+[S]/Km)) • Quantitation by ELISA of the selectable marker protein, Neomycin phosphotransferase II (NPTII) in the HCV Sub-Genomic Replicon, GS4.3
As a reminder, the IC50 is the concentration at which inhibition is half-maximal. Consider `CC(C)(C)CNC(=O)[C@@]12C[C@H]1/C=C\CCCCC[C@H](NC(=O)OC(C)(C)C)C(=O)N1CCC[C@H]1C(=O)N2` [Compound 2315], for which the 50% inhibitory concentration (IC50) was below 1 µM.
The same measure, in the same setting: as for `CC(C)(C)OC(=O)N[C@H]1CCCCC/C=C\[C@@H]2C[C@@]2(C(=O)NCC2CC2)NC(=O)[C@@H]2CCCN2C1=O` [Compound 2302], the figure is below 10 µM; as for `CC(C)(C)OC(=O)N[C@H]1CCCCC/C=C\[C@@H]2C[C@@]2(C(=O)NCCc2ccccc2)NC(=O)[C@@H]2CCCN2C1=O` [Compound 2320], below 0.1 µM.

The experiment is the same for the next values; noted with them: Table 24; read-out: NS3-NS4 IC50.
On to `C[C@H](NC(=O)[C@@]12C[C@H]1/C=C\CCCCC[C@H](NC(=O)OC(C)(C)C)C(=O)N1C[C@H](OC(=O)N3Cc4ccccc4C3)C[C@H]1C(=O)N2)c1ccccc1` [Compound 2502], for which the IC50 was above 10 µM.

The experiment is the same for the next values; noted with them: recombinant E. coli or Baculovirus full-length NS3 with NS4A-2; read-out: NS3-NS4 IC50.
Regarding `CS(=O)(=O)NC(=O)[C@@]12C[C@H]1/C=C\CCCCC[C@H](NC(=O)OC1CCCC1)C(=O)N1C[C@H](OC(=O)N3CCc4ccccc4C3)C[C@H]1C(=O)N2` [Compound 119], the IC50 was below 0.1 µM.
The same measure, in the same setting: the result for `CC(C)(C)OC(=O)N[C@H]1CCCCC/C=C\[C@@H]2C[C@@]2(C(=O)NS(=O)(=O)N2CCCCC2c2cccnc2)NC(=O)[C@@H]2CCCN2C1=O` (stereo partly drawn) [Compound 2222] reads below 1 µM; that for `CCOC(=O)[C@@]12C[C@H]1/C=C\CCCCC[C@H](N)C(=O)N1C[C@H](OC(=O)N3Cc4ccc(OCCNC(C)C)cc4C3)C[C@H]1C(=O)N2` [Compound 128], above 10 µM.
Still for that read-out and setting: as for `CCOC(=O)[C@@]12C[C@H]1/C=C\CCCCC[C@H](N)C(=O)N1C[C@H](OC(=O)N3Cc4ccc(OCCN5CCOCC5)cc4C3)C[C@H]1C(=O)N2` [Compound 126], the figure is above 10 µM; as for `CC(C)(C)OC(=O)N[C@H]1CCCCC/C=C\[C@@H]2C[C@@]2(C(=O)NS(=O)(=O)Nc2ccc(F)cc2)NC(=O)[C@@H]2CCCN2C1=O` [Compound 2237], below 1 µM.
For the compound `CC(C)(C)OC(=O)N[C@H]1CCCCC/C=C\[C@@H]2C[C@@]2(C(=O)NS(=O)(=O)c2cccc3c(Cl)cccc23)NC(=O)[C@@H]2CCCN2C1=O` [Compound 309], the IC50 was below 10 µM.
The same measure, in the same setting: the result for `CC(C)(C)OC(=O)N[C@H]1CCCCC/C=C\[C@@H]2C[C@@]2(C(=O)NS(=O)(=O)Cc2cccc(Cl)c2)NC(=O)[C@@H]2CCCN2C1=O` [Compound 2118] reads below 1 µM; that for `Cc1ccc(NS(=O)(=O)NC(=O)[C@@]23C[C@H]2/C=C\CCCCC[C@H](NC(=O)OC(C)(C)C)C(=O)N2CCC[C@H]2C(=O)N3)cc1` [Compound 2243], below 1 µM; that for `CC(C)(C)OC(=O)N[C@H]1CCCCC/C=C\[C@@H]2C[C@@]2(C(=O)NCC(O)(C(F)(F)F)C(F)(F)F)NC(=O)[C@@H]2CCCN2C1=O` [Compound 503], above 10 µM.
The same measure, in the same setting: as for `CC(C)COC(=O)N[C@H]1CCCCC/C=C\[C@@H]2C[C@@]2(C(=O)NS(=O)(=O)Nc2ccc(Cl)cc2)NC(=O)[C@@H]2CCCN2C1=O` [Compound 419], the figure is below 10 µM; as for `CN(Cc1ccccc1)S(=O)(=O)NC(=O)[C@@]12C[C@H]1/C=C\CCCCC[C@H](NC(=O)OC(C)(C)C)C(=O)N1CCC[C@H]1C(=O)N2` [Compound 417], below 10 µM.
Still for that read-out and setting: the result for `CC(C)(C)OC(=O)N[C@H]1CCCCC/C=C\[C@@H]2C[C@@]2(C(=O)NS(=O)(=O)c2ccccc2Br)NC(=O)[C@@H]2CCCN2C1=O` [Compound 2111] reads below 10 µM; that for `CN(c1cccc(Cl)c1)S(=O)(=O)NC(=O)[C@@]12C[C@H]1/C=C\CCCCC[C@H](NC(=O)OC(C)(C)C)C(=O)N1CCC[C@H]1C(=O)N2` [Compound 404], below 10 µM.
For `N[C@H]1CCCCC/C=C\[C@@H]2C[C@@]2(C(=O)NS(=O)(=O)Nc2ccc(Cl)cc2)NC(=O)[C@@H]2C[C@@H](OC(=O)N3Cc4ccccc4C3)CN2C1=O` [Compound 203], the IC50 is below 1 µM.
Still for that read-out and setting: the result for `CC(C)(C)OC(=O)N[C@H]1CCCCC/C=C\[C@@H]2C[C@@]2(C(=O)NS(=O)(=O)N(CCC#N)C2CC2)NC(=O)[C@@H]2CCCN2C1=O` [Compound 2210] reads below 1 µM.
Still for that read-out and setting: as for `COc1ccc(S(=O)(=O)NC(=O)[C@@]23C[C@H]2/C=C\CCCCC[C@H](NC(=O)OC(C)(C)C)C(=O)N2CCC[C@H]2C(=O)N3)cc1` [Compound 2133], the figure is below 10 µM; as for `CC(C)(C)OC(=O)N[C@H]1CCCCC/C=C\[C@@H]2C[C@@]2(C(=O)NS(=O)(=O)Cc2ccccc2)NC(=O)[C@@H]2CCCN2C1=O` [Compound 2135], below 1 µM.
`COc1cccc(NS(=O)(=O)NC(=O)[C@@]23C[C@H]2/C=C\CCCCC[C@H](NC(=O)OC(C)(C)C)C(=O)N2CCC[C@H]2C(=O)N3)c1` [Compound 2240]: the IC50 is below 1 µM.
Still for that read-out and setting: as for `CN(C)c1ccc(S(=O)(=O)NC(=O)[C@@]23C[C@H]2/C=C\CCCCC[C@H](NC(=O)OC2CCCC2)C(=O)N2C[C@H](OC(=O)N4CCc5ccccc5C4)C[C@H]2C(=O)N3)cc1` [Compound 183], the figure is below 0.1 µM.
Regarding `CN(c1ccccc1Cl)S(=O)(=O)NC(=O)[C@@]12C[C@H]1/C=C\CCCCC[C@H](NC(=O)OC(C)(C)C)C(=O)N1CCC[C@H]1C(=O)N2` [Compound 405], the IC50 was below 10 µM.
Same read-out and setting: as for `COc1ccccc1S(=O)(=O)NC(=O)[C@@]12C[C@H]1/C=C\CCCCC[C@H](NC(=O)OC(C)(C)C)C(=O)N1CCC[C@H]1C(=O)N2` [Compound 2122], the figure is below 1 µM.
`CC[C@@H]1C[C@H]2C(=O)N[C@]3(C(=O)O)C[C@H]3/C=C\CCCCC[C@H](NC(=O)OC3CCCC3)C(=O)N2C1` [Compound 313]: the half-maximal inhibitory concentration (IC50) is below 10 µM.
The same measure, in the same setting: as for `CCOc1ccc2sc(S(=O)(=O)NC(=O)[C@@]34C[C@H]3/C=C\CCCCC[C@H](NC(=O)OC(C)(C)C)C(=O)N3CCC[C@H]3C(=O)N4)nc2c1` [Compound 306], the figure is above 10 µM; as for `CC(C)(C)OC(=O)N[C@H]1CCCCC/C=C\[C@@H]2C[C@@]2(C(=O)NS(=O)(=O)NCCc2ccccn2)NC(=O)[C@@H]2CCCN2C1=O` [Compound 423], below 10 µM.
The same measure, in the same setting: as for `COC(=O)c1csc(S(=O)(=O)NC(=O)[C@@]23C[C@H]2/C=C\CCCCC[C@H](NC(=O)OC(C)(C)C)C(=O)N2CCC[C@H]2C(=O)N3)c1OC` [Compound 310], the figure is above 10 µM; as for `CN(C)CCNC(=O)[C@@]12C[C@H]1/C=C\CCCCC[C@H](NC(=O)OC(C)(C)C)C(=O)N1C[C@H](OC(=O)N3Cc4cccc(F)c4C3)C[C@H]1C(=O)N2` [Compound 608], above 10 µM.
Still for that read-out and setting: the result for `CC(C)(C)OC(=O)N[C@H]1CCCCCCC[C@@H]2C[C@@]2(C(=O)O)NC(=O)C2Cc3ccccc3CN2C1=O` (stereo partly drawn) [Compound 2011, (1aR,9S,19aR)-9-(tert-butoxycarbonyl)-10,18-dioxo-1a,2,3,4,5,6,7,8,9,10,12,17,17a,18,19,19a-hexadecahydro-1H-2,5-diaza-bicyclo[13.1.0]hexadec-1(15)-eno[5,4-b]isoquinoline-19a-carboxylic acid] reads above 10 µM; that for `CC(C)(C)OC(=O)N[C@H]1CCCCC/C=C\[C@@H]2C[C@@]2(C(=O)NS(=O)(=O)C2CCCC2)NC(=O)[C@@H]2CCCN2C1=O` [Compound 2120], below 1 µM.
With `CC(C)(C)OC(=O)N[C@H]1CCCCC/C=C\[C@@H]2C[C@@]2(C(=O)NS(=O)(=O)N2CCCC2)NC(=O)[C@@H]2CCCN2C1=O` [Compound 2207], the IC50 was below 10 µM.
